# Assay results reported in patent publication US11000537B2, “Composition comprising novel ginsenoside” (AMOREPACIFIC CORPORATION, priority 2018, dated 2021).
# Key:
# [1] = molecular target: T1, pancreatic α-amylase (Sus scrofa, UniProt P00690); assay: α-amylase enzyme activity inhibition; format: biochemical
# T1 construct: purchased Sigma
# T1 sequence (P00690 16-511): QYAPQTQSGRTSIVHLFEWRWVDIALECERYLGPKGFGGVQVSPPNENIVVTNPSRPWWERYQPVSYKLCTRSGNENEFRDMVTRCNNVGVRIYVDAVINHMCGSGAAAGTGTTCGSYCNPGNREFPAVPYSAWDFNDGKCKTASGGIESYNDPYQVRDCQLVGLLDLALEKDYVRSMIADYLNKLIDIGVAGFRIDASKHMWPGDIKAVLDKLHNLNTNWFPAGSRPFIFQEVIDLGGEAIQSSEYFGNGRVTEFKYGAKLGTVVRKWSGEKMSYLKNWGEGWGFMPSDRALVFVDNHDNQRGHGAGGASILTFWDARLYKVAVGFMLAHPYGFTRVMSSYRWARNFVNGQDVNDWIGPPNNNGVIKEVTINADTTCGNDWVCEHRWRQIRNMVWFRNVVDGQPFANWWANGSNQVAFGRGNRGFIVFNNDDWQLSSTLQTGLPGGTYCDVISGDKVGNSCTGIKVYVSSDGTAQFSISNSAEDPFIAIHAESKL
# Method: As a polysaccharide degrading enzyme, pancreatic α-amylase and α-glucosidase were purchased from Sigma, and the enzyme activity of novel ginsenoside GS #10, which is an example of the present disclosure, isolated from Ginseng seed extract and ginsenosides GS #01-GS #06, which are comparative examples of the present disclosure, was measured. In order to measure α-amylase activity, enzyme solution was prepared by dissolving BSA 0.1 g, 0.01 g/L NaN3, α-amylase 0.2857 g in 50 mL of PBS (phosphate buffered saline), and 5 mM of p-nitrophenyl-α-D-maltopentoglycoside was dissolved in another PBS to make a substrate solution. 0.1 mL of the test substance was added to 0.5 mL of the enzyme solution, and then the initial absorbance was measured at 405 nm. After adding 0.5 mL of the substrate solution and reacting it for 5 minutes, the absorbance was measured again. The change in enzyme activity was measured by the difference in absorbance between the two reactions. The method for measuring α-glucosidase activity is the same as the method for measuring α-amylase activity, and differs only in α-glucosidase and substrate (p-nitrophenyl-α-D-glucopyranoside). As a positive control to observe the inhibition of enzyme activity, acarbose, which is an α-amylase inhibitor and α-glucosidase inhibitor derived from wheat seed sold by Sigma, was used.
# [2] = test system: 3T1-L1 adipocytes; assay: glucose uptake (glucose transport) in differentiated adipocytes; format: cell-based; conditions: 10 μM, FIG. 13
# Method: 3T1-L1 adipocytes (ATCC) were purchased, and 10% bovine calf serum (Hyclone) and 1% penicillin/streptomycin (Sigma) were added to a Dulbecco's Modified Eagle's Medium (Sigma) and cultured in a 5% CO2 culture medium. In order to differentiate preadipocyte cells into adipocytes, a culture plate was filled with cells and cultured for 48 hours. The cells were then replaced in a DMEM medium to which 10% fetal bovine serum (FBS) (Hyclone), 0.5 mM 3-isobutyl-1-methylxanthine (Sigma), 1 μM dexamethasone (Sigma), 5 μg/ml insulin (Sigma), and 1% penicillin/streptomycin were added and cultured for another 48 hours. Thereafter, the cells were further cultured for 14 days while being replaced in a medium containing 10% FBS, 5 μg/ml insulin, and 1% penicillin/streptomycin at two-day intervals to obtain fully differentiated adipocytes. […] As a positive control for measuring glucose uptake in blood, Metformin (Sigma; 10 μM), which is used as a diabetic therapeutic agent, was used, and novel ginsenoside GS #10, which is an example of the present disclosure, isolated from Ginseng seed extract and ginsenosides GS #01-GS #06, which are comparative examples of the present disclosure, were treated with 10 μM each. In addition, both insulin-dependent/independent glucose transport capacity was measured by treating insulin together, which may promote glucose uptake.
# [3] = test system: adipocyte cell 3T3-L1; assay: fat accumulation in adipocytes (Oil-red O staining); format: cell-based
# Method: The adipocyte cell 3T3-L1 purchased from the International Center for Biological Resources (ATCC) were placed in Dulbecco's Modified Eagle's Medium (Sigma) to which 10% fetal bovine serum (Hyclone) and 1% penicillin/streptomycin (Sigma) were added, and cultured in a 5% CO2 incubator. In order to differentiate preadipocytes into adipocytes, the cells were filled in a culture plate and cultured. After 48 hours, the cells were replaced with Dulbecco's modified eagle medium (DMEM) to which 10% of fetal bovine serum (Hyclone), 0.5 mM of 3-isobutyl-1-methylxanthine (Sigma), 1 μM of dexamethasone (Sigma), 5 μg/ml of insulin (Sigma), 1% of penicillin/streptomycin (Sigma) were added and further cultured for 48 hours. […] As a control to confirm the effect of inhibiting adipocyte differentiation, 20 μM of bisphenol A diglycidyl ether (BADGE) (Sigma), a PPARγ (Peroxisome proliferator-activated receptor gamma) antagonist, was used. Thereafter, the cells were further cultured for 10 days while being replaced with a medium containing 10% FBS and 5 μg/ml insulin and 1% penicillin/streptomycin at two-day intervals to induce adipocyte differentiation.
# Differentiated adipocytes treated with each of the seven types of ginsenosides were fixed with formaldehyde solution (Sigma), stained with Oil-red O staining solution (Sigma), and then dissolved with isopropanol (Sigma), and then the amount of the stained fat was quantified by measuring at 490 nm absorbance.
# [4] = test system: SREBP1c (sterol-regulatory element binding protein 1c); assay: SREBP1c gene expression in HepG2 (qPCR); format: cell-based; conditions: 24 hours
# Method: (§1) The hepatocyte cell line HepG2 purchased from the International Center for Biological Resources (ATCC) were placed in Dulbecco's Modified Eagle's Medium (Sigma) to which 10% fetal bovine serum (Hyclone) and 1% penicillin/streptomycin (Sigma) were added, and cultured in a 5% CO2 incubator. […] After 24 hours of treatment, cells were collected, RNA was extracted using Trizol™ reagent (Thermo Fisher Scientific), and cDNA was synthesized using RevertAid™ 1st strand cDNA synthesis kit (Thermo Fisher Scientific). Bio-Rad's CFX96 real-time quantitative PCR (qPCR) instrument was used to observe the expression of the genes SREBP1c (sterol-regulatory element binding protein 1c), ACC (acetyl-CoA carboxylase) and FAS (Fatty acid synthase), which induces fat synthesis or accumulation.
# [5] = test system: FAS (Fatty acid synthase); assay: FAS gene expression in HepG2 (qPCR); format: cell-based; conditions: 24 hours
# Method: as §1
structure (smiles),measurement,setting,value
"CC1(C)C(=O)CC[C@@]2(C)C1[C@@H](O[C@H]1OC(CO)[C@H](O)C(O)C1O[C@H]1OC(CO)[C@H](O)C(O)C1O)C[C@]1(C)C2C[C@@H](O)C2C([C@]3(C)CC[C@H](C(C)(C)O)O3)CC[C@]21C (stereo partly drawn) [GS #10, (20S,24R)-6-O-β-D-glucopyranosyl(1→2)-β-D-glucopyranoside-dammar-3-one-20,24-epoxy-6a,12b,25-triol]",α-amylase activity inhibitory effect,"[1]; 1, 10 μM, compared with ginsenosides Rg1, Rg3, Rb1, FIG. 14",much superior
same,α-amylase activity inhibitory effect,"[1]; Test Example 1, FIG. 11, ginseng seed ginsenosides compared",most excellent α-amylase activity inhibitory effect
same,glucose transport promotion,[2]; combined with insulin (+insulin),the glucose transport is further increased as compared with the insulin-only treatment group
same,glucose transport promotion,[2]; material-only treatment (−insulin),statistically significant glucose transport promotion
same,fat accumulation inhibitory effect in adipocytes,"[3]; 1 μM and 10 μM, compared with Rg1, Rg3, Rb1, FIG. 38",far superior in adipocyte differentiation inhibition and fat accumulation inhibitory effect
same,fat accumulation inhibitory effect in adipocytes,"[3]; 10 μM during 48 hours of differentiation, FIG. 34",most excellent fat accumulation inhibitory effect
same,SREBP1c expression inhibitory effect,"[4]; 10 μM, HepG2, FIG. 18",significantly higher expression inhibitory effect
same,SREBP1c expression inhibitory effect,"[4]; 1, 10 μM, compared with Rg1, Rg3, Rb1, FIG. 23",far superior in lipid metabolism inhibitory effect
same,FAS expression inhibitory effect,"[5]; 10 μM, HepG2, FIG. 20",significantly higher expression inhibitory effect
same,FAS expression inhibitory effect,"[5]; 1, 10 μM, compared with Rg1, Rg3, Rb1, FIG. 25",far superior in lipid metabolism inhibitory effect
